Assay results as given in US6554620B1, “Aqueous disinfectant/sterilizing agent for foods” (priority 2001, dated 2003).
“And” between values parts separate entries of the source, which are not always exact repeats. Equal values may be shown once. Read-outs that look alike come from different tables or passages of the source.

Experiments:
[1] = test system: Salmonella typhimurium TA100; assay: Reverse mutation screening assay; assay type: cell-based
Procedure: (§1) The test was conducted at Biosafety Research Center for Foods, Drugs and Pesticides, in Shizuoka, Japan.

[2] = test system: Salmonella typhimurium TA98; assay: Reverse mutation screening assay; assay type: cell-based
Procedure: as §1

[3] = test system: Aspergillus niger (IFO 4414); assay: Efficacy comparison (MIC method) of hinokitiol as single substance and the invented agent; assay type: cell-based; design: key: growth of bacteria is shown as “+”; no growth is shown as “−”; conditions: 7 days at 30° C.
Procedure: (§2) Escherihia coli (IFO 3972) and Aspergillus niger (IFO 4414) were used utilizing the minimum inhibitory method (MIC) to conduct a comparison testing the efficacy of hinokitiol as a single substance and the invented aqueous disinfectant.
(§3) Type II of the invented agent as previously described, having a hinokitiol concentration of 0.1 weight % (1000 ppm) was diluted 10 times, 20 times, 50 times, and 100 times and standard agar plate for E-coli and potato dextrose agar plate for aspergillus niger were prepared for each concentration. With hinokitiol as single substance, for 1000 g of water, 1 g of hinokitiol was used to make 0.1% solution, and this was diluted 10 times, 20 times, 50 times, and 100 times and standard agar plates and potato dextrose plates were prepared at each concentration. E-coli and aspergillus niger were implanted to the plate and cultivated for 7 days at 30° C. and the growth of the bacteria was observed. The result are shown in Table 4 below, where growth of bacteria is shown as “+”, and no growth is shown as “−”.

[4] = cited from earlier work
[5] = test system: Escherihia coli (IFO 3972); assay: Efficacy comparison (MIC method) of hinokitiol as single substance and the invented agent; assay type: cell-based, Escherichia coli; design: key to growth: growth of bacteria is shown as “+”; no growth is shown as “−”; conditions: 7 days at 30° C.
Procedure: as §2, §3

[6] = Water solubility of hinokitiol; assay type: physicochemical
Excerpt: It has been said that the water solubility of hinokitiol as a single substance, in weight is maximum 0.2 weight %. However, in our experiment, we could not make it more than 0.1 weight %.
With this invention, by mixing hinokitiol with the extract of aloe vera, green tea, low striped bamboo and dokudami, it is possible to make a 1.0 weight % water solution without difficulty. In addition to the above mixture, we have succeeded in making 10 weight % of concentration of hinokitiol in water basis by adding glycerin fatty acid ester as surface active agent and cara saponine, which is an emulsifier. Alcohol (ethanol) is not required as an ingredient to achieve the above noted high concentration of hinokitiol.
It is known fact that with the addition of ethanol, it is possible to make 5 weight % water solution but for some foods, adding alcohol is not suitable and can change the taste of foods. Therefore, this invention of non-alcoholic water soluble disinfectant solution has particular significance.

[7] = positive control requiring S9 mix, 1.0 μg/plate, Table 15
[8] = positive control requiring S9 mix, 1.0 μg/plate, Table 16
[9] = positive control requiring S9 mix, 0.5 μg/plate, Table 15
[10] = positive control requiring S9 mix, 0.5 μg/plate, Table 16
[11] = positive control not requiring S9 mix, 0.01 μg/plate, Table 15
[12] = positive control not requiring S9 mix, 0.01 μg/plate, Table 16
[13] = positive control not requiring S9 mix, 0.1 μg/plate, Table 15
[14] = positive control not requiring S9 mix, 0.1 μg/plate, Table 16
[15] = 10 times dilution of 0.1 weight % hinokitiol solution
[16] = 20 times dilution of 0.1 weight % hinokitiol solution
[17] = 50 times dilution of 0.1 weight % hinokitiol solution
[18] = 100 times dilution of 0.1 weight % hinokitiol solution

With `Nc1ccc2cc3ccccc3cc2c1` [2-AA] the “No. of revertants, mean in parentheses” value [1, 7] was 686 colonies/plate, the “No. of revertants, single plates” value [1, 7] was 683 colonies/plate and 688 colonies/plate and the “No. of revertants, mean in parentheses” value [1, 8] was 649 colonies/plate. The “No. of revertants, single plates” value [1, 8] was 647 colonies/plate and 650 colonies/plate, the “No. of revertants, mean in parentheses” value [2, 9] was 200 colonies/plate and the “No. of revertants, single plates” value [2, 9] was 203 colonies/plate and 196 colonies/plate. For the same compound, the “No. of revertants, mean in parentheses” value [2, 10] was 208 colonies/plate and the “No. of revertants, single plates” value [2, 10] was 197 colonies/plate and 219 colonies/plate.
With `NC(=O)/C(=C\c1ccc([N+](=O)[O-])o1)c1ccco1` [AF-2] the “No. of revertants, mean in parentheses” value [1, 11] was 370 colonies/plate, the “No. of revertants, single plates” value [1, 11] was 377 colonies/plate and 363 colonies/plate and the “No. of revertants, mean in parentheses” value [1, 12] was 410 colonies/plate. For the same compound, the “No. of revertants, single plates” value [1, 12] was 408 colonies/plate and 412 colonies/plate, the “No. of revertants, mean in parentheses” value [2, 13] was 733 colonies/plate and the “No. of revertants, single plates” value [2, 13] was 747 colonies/plate and 718 colonies/plate. For the same compound, the “No. of revertants, mean in parentheses” value [2, 14] was 692 colonies/plate and the “No. of revertants, single plates” value [2, 14] was 698 colonies/plate and 686 colonies/plate.
For `CC(C)c1cccc(=O)c(O)c1` [Hinokitiol, β-Thujaplicin], the growth [3, 15] was “−”, the growth [3, 16] was “+” and the growth [3, 17] was “+”. For the same compound, the growth [3, 18] was “+”, the “water solubility of hinokitiol as a single substance, maximum as has been said” value ([4]; in water) was no more than 0.2 weight % and the “hinokitiol water solution obtainable” value ([4]; with the addition of ethanol, known fact) was 5 weight %. The growth [5, 15] was “−”, the growth [5, 16] was “+” and the growth [5, 17] was “+”. The growth [5, 18] was “+”, the “hinokitiol concentration of the highest dilution that is effective (MIC method)” value ([5]; E-coli and Aspergillus niger) was 0.01% and the “concentration of hinokitiol in water basis obtainable” value ([6]; extracts plus glycerin fatty acid ester and cara saponine, no alcohol) was 10 weight %. The “water solubility of hinokitiol as a single substance, in our experiment” value ([6]; in water) was no more than 0.1 weight % and the “hinokitiol water solution obtainable” value ([6]; mixed with extract of aloe vera, green tea, low striped bamboo and dokudami) was 1.0 weight %.
